# Reference: ChEMBL document CHEMBL3400138, “Synthesis of 3-azabicyclo[3.2.2]nonanes and their antiprotozoal activities” (Bioorg Med Chem Lett, 2015)
# Active and inactive are the calls of the source. No cut-off for these calls is given here.
# How the values were obtained:
# Plasmodium berghei [1] = assay: Antiplasmodial activity against orally dosed GFP-transfected Plasmodium berghei ANKA infected in NMRI mouse assessed as reduction in parasitemia by FACS analysis; assay type: functional
# [2] = tested on: Staphylococcus epidermidis; assay: Antibacterial activity against Staphylococcus epidermidis ATCC 12228 at 100 ug after 24 hrs; assay type: functional, organism-based
# Leishmania sp. = assay: Antiparasitic activity against Leishmania sp.; assay type: functional, organism-based
# Raoultella planticola = assay: Antibacterial activity against Raoultella planticola ATCC 15050 at 100 ug after 24 hrs; assay type: functional, organism-based
# Plasmodium berghei [3] = assay: Antiplasmodial activity against GFP-transfected Plasmodium berghei ANKA infected in NMRI mouse assessed as reduction in parasitemia at 100 mg/kg, po administered 24 hrs post infection by FACS analysis; assay type: functional
# Enterococcus faecium = assay: Antibacterial activity against Enterococcus faecium ATCC 6057 at 100 ug after 24 hrs; assay type: functional; conditions: ATCC 6057, 24 h, read-out: DIZ
# Plasmodium berghei [4] = assay: Antiplasmodial activity against GFP-transfected Plasmodium berghei ANKA infected in NMRI mouse assessed as reduction in parasitemia at 200 mg/kg, po administered 24 hrs post infection by FACS analysis; assay type: functional
# [5] = target: Voltage-gated inwardly rectifying potassium channel KCNH2 (Homo sapiens, UniProt Q12809); assay: Inhibition of human ERG expressed in HEK293 cells assessed as reduction in tail current at membrane potential of +20 mV; assay type: cell-based
# Staphylococcus aureus = assay: Antibacterial activity against Staphylococcus aureus ATCC 25923 at 100 ug after 24 hrs; assay type: functional
# [6] = Half life in rat at 10 mg/kg, iv; assay type: ADME, organism-based; set-up: dose 10 mg/kg, route intravenous; conditions: in vivo
# Plasmodium berghei [7] = assay: Antiplasmodial activity against GFP-transfected Plasmodium berghei ANKA infected in NMRI mouse assessed as reduction in parasitemia at 100 mg/kg, po administered 4, 24, 48 and 72 hrs post infection by FACS analysis; assay type: functional
# L6 = assay: Cytotoxicity against rat L6 cells after 72 hrs by alamar blue assay; assay type: cell-based; conditions: L6, 72 h
# Plasmodium berghei [8] = assay: Antiplasmodial activity against GFP-transfected Plasmodium berghei ANKA infected in NMRI mouse assessed as mean survival day at 20 mg/kg, ip administered 4, 24, 48 and 72 hrs post infection (reference value: 4 days); assay type: functional; conditions: route intraperitoneal
# hERG (KCNH2) [9] = target: T1, hERG (KCNH2) (Homo sapiens, UniProt Q12809); assay: Inhibition of human ERG expressed in HEK293 cells assessed as reduction in tail current at 3 uM and at membrane potential of +0 mV; assay type: cell-based; conditions: HEK293 cells that express hERG
# hERG (KCNH2) [10] = target: T1, hERG (KCNH2); assay: Inhibition of human ERG expressed in HEK293 cells assessed as reduction in tail current at 3 uM and at membrane potential of +20 mV; assay type: cell-based; conditions: HEK293 cells that express hERG
# Candida albicans = assay: Antifungal activity against Candida albicans ATCC 10231 at 100 ug after 48 hrs; assay type: functional, organism-based
# Candida parapsilosis = assay: Antifungal activity against Candida parapsilosis ATCC 90018 at 100 ug after 48 hrs; assay type: functional, organism-based
# [11] = Selectivity index, ratio of CC50 for rat L6 cells to IC50 for chloroquine and pyrimethamine resistant Plasmodium falciparum K1; assay type: functional
# Trypanosoma = assay: Antiparasitic activity against Trypanosoma sp.; assay type: functional, organism-based
# [12] = Selectivity index, ratio of CC50 for rat L6 cells to IC50 for Trypanosoma brucei rhodesiense STIB900; assay type: functional
# Enterococcus faecalis = assay: Antibacterial activity against Enterococcus faecalis ATCC 14506 at 100 ug after 24 hrs; assay type: functional
# Plasmodium falciparum = assay: Antiplasmodial activity against chloroquine and pyrimethamine resistant Plasmodium falciparum K1 infected in human red blood cells assessed as reduction in parasite viability after 48 hrs by [3H]-hypoxanthine incorporation assay; assay type: functional, organism-based
# Escherichia coli = assay: Antibacterial activity against Escherichia coli ATCC 25922 at 100 ug after 24 hrs; assay type: functional; conditions: ATCC 25922, 24 h, read-out: DIZ
# Plasmodium berghei [13] = assay: Antiplasmodial activity against GFP-transfected Plasmodium berghei ANKA infected in NMRI mouse assessed as reduction in parasitemia administered intraperitoneally 4, 24, 48 and 72 hrs post infection by FACS analysis; assay type: functional
# Klebsiella oxytoca = assay: Antibacterial activity against Klebsiella oxytoca ATCC 8724 at 100 ug after 24 hrs; assay type: functional, organism-based
# Plasmodium berghei [14] = assay: Antiplasmodial activity against GFP-transfected Plasmodium berghei ANKA infected in NMRI mouse assessed as mean survival day at 100 mg/kg, po administered 24 hrs post infection (reference value: 3 days); assay type: functional
# Plasmodium berghei [15] = assay: Antiplasmodial activity against GFP-transfected Plasmodium berghei ANKA infected in NMRI mouse assessed as reduction in parasitemia at 50 mg/kg, ip administered 4, 24, 48 and 72 hrs post infection by FACS analysis; assay type: functional; conditions: route intraperitoneal
# [16] = tested on: Trypanosoma brucei rhodesiense; assay: Antitrypanosomal activity against Trypanosoma brucei rhodesiense STIB900 bloodstream forms after 72 hrs by alamar blue assay; assay type: functional, organism-based; conditions: STIB900, 72 h
# Plasmodium berghei [17] = assay: Antiplasmodial activity against GFP-transfected Plasmodium berghei ANKA infected in NMRI mouse assessed as reduction in parasitemia at 10 mg/kg, ip administered 4, 24, 48 and 72 hrs post infection by FACS analysis; assay type: functional; conditions: route intraperitoneal
# Plasmodium berghei [18] = assay: Antiplasmodial activity against GFP-transfected Plasmodium berghei ANKA infected in NMRI mouse assessed as mean survival day at 200 mg/kg, po administered 24 hrs post infection (reference value: 3 days); assay type: functional
# Mus musculus = assay: Toxicity in GFP-transfected Plasmodium berghei ANKA infected NMRI mouse at 200 mg/kg, po administered 24 hrs post infection; assay type: organism-based; set-up: dose 200 mg/kg, route oral; conditions: in vivo
# [19] = tested on: Mycolicibacterium smegmatis; assay: Antimycobacterial activity against Mycobacterium smegmatis ATCC 14468 assessed as inhibition of bacterial growth after 72 hrs by MTT dye based microbroth dilution assay; assay type: functional; conditions: ATCC 14468, 72 h
# Candida tropicalis = assay: Antifungal activity against Candida tropicalis ATCC 13803 at 100 ug after 48 hrs; assay type: functional, organism-based
# Plasmodium berghei [20] = assay: Antiplasmodial activity against GFP-transfected Plasmodium berghei ANKA infected in NMRI mouse assessed as mean survival day at 50 mg/kg, ip administered 4, 24, 48 and 72 hrs post infection (reference value: 4 to 6 days); assay type: functional; conditions: route intraperitoneal
# Plasmodium berghei [21] = assay: Antiplasmodial activity against GFP-transfected Plasmodium berghei ANKA infected in NMRI mouse assessed as mean survival day at 10 mg/kg, ip administered 4, 24, 48 and 72 hrs post infection (reference value: 4 days); assay type: functional; conditions: route intraperitoneal
# Proteus mirabilis = assay: Antibacterial activity against Proteus mirabilis ATCC 14153 at 100 ug after 24 hrs; assay type: functional; conditions: ATCC 14153, 24 h, read-out: DIZ
# Bacillus subtilis = assay: Antibacterial activity against Bacillus subtilis ATCC 6051 at 100 ug after 24 hrs; assay type: functional, organism-based
# Plasmodium berghei [22] = assay: Antiplasmodial activity against GFP-transfected Plasmodium berghei ANKA infected in NMRI mouse assessed as reduction in parasitemia at 20 mg/kg, ip administered 4, 24, 48 and 72 hrs post infection by FACS analysis; assay type: functional; conditions: route intraperitoneal
# Plasmodium berghei [23] = assay: Antiplasmodial activity against GFP-transfected Plasmodium berghei ANKA infected in NMRI mouse assessed as mean survival day at 100 mg/kg, po administered 4, 24, 48 and 72 hrs post infection (reference value: 4 days); assay type: functional
# T1 sequence (Q12809 whole entry): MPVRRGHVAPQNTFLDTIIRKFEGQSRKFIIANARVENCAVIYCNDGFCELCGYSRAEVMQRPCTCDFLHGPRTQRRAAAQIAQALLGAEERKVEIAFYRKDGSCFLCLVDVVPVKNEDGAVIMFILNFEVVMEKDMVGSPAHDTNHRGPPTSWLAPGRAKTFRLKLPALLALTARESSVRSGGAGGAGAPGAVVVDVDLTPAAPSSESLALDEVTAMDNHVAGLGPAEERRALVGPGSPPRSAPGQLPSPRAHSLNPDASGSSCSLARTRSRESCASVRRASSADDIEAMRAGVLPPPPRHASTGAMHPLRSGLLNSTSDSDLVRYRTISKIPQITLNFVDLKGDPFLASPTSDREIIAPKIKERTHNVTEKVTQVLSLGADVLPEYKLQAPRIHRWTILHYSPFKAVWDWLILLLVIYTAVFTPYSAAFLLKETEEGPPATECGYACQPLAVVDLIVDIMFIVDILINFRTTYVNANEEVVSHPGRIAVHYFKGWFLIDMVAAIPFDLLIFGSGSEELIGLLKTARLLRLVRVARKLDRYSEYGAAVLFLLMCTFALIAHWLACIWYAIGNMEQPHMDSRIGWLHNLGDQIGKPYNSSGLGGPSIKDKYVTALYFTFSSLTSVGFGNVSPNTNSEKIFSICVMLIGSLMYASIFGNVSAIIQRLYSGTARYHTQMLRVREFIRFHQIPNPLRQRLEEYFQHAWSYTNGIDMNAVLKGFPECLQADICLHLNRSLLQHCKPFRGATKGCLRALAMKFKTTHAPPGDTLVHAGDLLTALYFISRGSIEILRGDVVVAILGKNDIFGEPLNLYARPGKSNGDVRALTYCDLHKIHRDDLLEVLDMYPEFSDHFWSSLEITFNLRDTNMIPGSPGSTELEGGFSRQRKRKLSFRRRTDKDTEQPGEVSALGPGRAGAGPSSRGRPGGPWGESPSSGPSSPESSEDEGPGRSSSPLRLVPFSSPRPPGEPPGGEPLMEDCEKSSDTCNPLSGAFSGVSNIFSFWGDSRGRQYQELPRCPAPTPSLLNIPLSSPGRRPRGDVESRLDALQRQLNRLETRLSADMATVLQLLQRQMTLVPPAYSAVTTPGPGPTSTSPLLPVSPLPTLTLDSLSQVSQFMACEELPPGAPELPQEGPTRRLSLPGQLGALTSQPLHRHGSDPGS
# Chain of Voltage-gated inwardly rectifying potassium channel KCNH2 (Q12809 whole entry): as above
smiles,measurement,setting,value
Cl.c1ccc(C2CC3(N4CCCC4)CNCC2C(c2ccccc2)C3)cc1 (racemic),inhibition,Plasmodium berghei [1],Dose-dependent effect
same,ED50,Plasmodium berghei [1]; po,75 mg/kg
same,diameter of the inhibition zone (DIZ),[2],inactive
same,inhibition,Leishmania sp.,Active
same,diameter of the inhibition zone (DIZ),Raoultella planticola,inactive
same,inhibition in vivo at 100 mg/kg,Plasmodium berghei [3],70.5%
same,zone of inhibition at 100 µg/disc,Enterococcus faecium,10 mm
same,inhibition in vivo at 200 mg/kg,Plasmodium berghei [4],66.1%
same,IC50,[5],2.63 µM
same,inhibition (INH),"[5]; human, hek293",Dose-dependent effect
same,diameter of the inhibition zone (DIZ),Staphylococcus aureus,inactive
same,half-life,[6],18 min
same,inhibition in vivo at 100 mg/kg,Plasmodium berghei [7],97.7%
same,IC50,L6,72.9 µM
same,MSD,Plasmodium berghei [8],10 days
same,inhibition at 3 µM,hERG (KCNH2) [9],45.9%
same,inhibition at 3 µM,hERG (KCNH2) [10],54.8%
same,diameter of the inhibition zone (DIZ),Candida albicans,inactive
same,diameter of the inhibition zone (DIZ),Candida parapsilosis,inactive
same,Ratio IC50,[11],767.7
same,inhibition,Trypanosoma,Active
same,Ratio IC50,[12],72.9
same,diameter of the inhibition zone (DIZ),Enterococcus faecalis,inactive
same,IC50,Plasmodium falciparum,0.095 µM
same,zone of inhibition at 100 µg/disc,Escherichia coli,10 mm
same,inhibition,Plasmodium berghei [13],Dose-dependent effect
same,ED50,Plasmodium berghei [13]; ip,17 mg/kg
same,ED90,Plasmodium berghei [13]; ip,40 mg/kg
same,diameter of the inhibition zone (DIZ),Klebsiella oxytoca,inactive
same,MSD,Plasmodium berghei [14],12 days
same,inhibition in vivo at 50 mg/kg,Plasmodium berghei [15],94.8%
same,IC50,[16],1 µM
same,inhibition in vivo at 10 mg/kg,Plasmodium berghei [17],25.1%
same,MSD,Plasmodium berghei [18],16 days
same,Activity,Mus musculus,Toxic
same,MIC,[19],128 mg/L
same,diameter of the inhibition zone (DIZ),Candida tropicalis,inactive
same,MSD,Plasmodium berghei [20],15 days
same,MSD,Plasmodium berghei [21],4 days
same,zone of inhibition at 100 µg/disc,Proteus mirabilis,11 mm
same,diameter of the inhibition zone (DIZ),Bacillus subtilis,inactive
same,inhibition in vivo at 20 mg/kg,Plasmodium berghei [22],60.1%
same,MSD,Plasmodium berghei [23],18.6 days
